# Assay results from BindingDB's records for doi:10.1016/j.bmcl.2016.09.047 (Boehringer Ingelheim Pharmaceuticals, 2016).
# Several values for one entry are separate records, joined by “and”; a condition that tells them apart may be missing. Equal entries are not always repeated.
# Target: not listed separately
# Test: Antagonist activity at human CCR10 expressed in mouse BA/F3 cells assessed as inhibition of human CCL27-dependent chemotaxis
row,SMILES,IC50
1,CC1CCN(C(=O)C(CCn2ccnc2[N+](=O)[O-])NS(=O)(=O)c2cc(Cl)c(N)c(Cl)c2)CC1 (centres undefined),53 nM and 50 nM
2,CC1CCN(C(=O)C(CCn2ccnc2Cl)NS(=O)(=O)c2cc(Cl)c(N)c(Cl)c2)CC1 (centres undefined),251 nM
3,CC1CCN(C(=O)[C@@H](CCc2ccccc2)NS(=O)(=O)c2cc(Cl)c(N)c(Cl)c2)CC1,501 nM
4,CC1CCN(C(=O)C(CCn2nccn2)NS(=O)(=O)c2cc(Cl)c(N)c(Cl)c2)CC1 (centres undefined),1260 nM
5,CC1CCN(C(=O)C(CCn2cccn2)NS(=O)(=O)c2cc(Cl)c(N)c(Cl)c2)CC1 (centres undefined),1260 nM

# Next, values leading:
row,IC50,SMILES
1,13 nM,CC1CCN(C(=O)C(CCn2cccc2C#N)NS(=O)(=O)c2ccc3[nH]ccc3c2)CC1 (centres undefined)
2,79 nM,Cc1ccc(S(=O)(=O)NC(CCn2cccc2C#N)C(=O)N2CCC(C)CC2)c(C)c1N (centres undefined)
3,16 nM,CC1CCN(C(=O)C(CCn2cccc2C#N)NS(=O)(=O)c2ccc3cc[nH]c3c2)CC1 (centres undefined)

# Target: T1, C-C chemokine receptor type 10 (Homo sapiens, UniProt P46092)
# T1 sequence (P46092 whole entry): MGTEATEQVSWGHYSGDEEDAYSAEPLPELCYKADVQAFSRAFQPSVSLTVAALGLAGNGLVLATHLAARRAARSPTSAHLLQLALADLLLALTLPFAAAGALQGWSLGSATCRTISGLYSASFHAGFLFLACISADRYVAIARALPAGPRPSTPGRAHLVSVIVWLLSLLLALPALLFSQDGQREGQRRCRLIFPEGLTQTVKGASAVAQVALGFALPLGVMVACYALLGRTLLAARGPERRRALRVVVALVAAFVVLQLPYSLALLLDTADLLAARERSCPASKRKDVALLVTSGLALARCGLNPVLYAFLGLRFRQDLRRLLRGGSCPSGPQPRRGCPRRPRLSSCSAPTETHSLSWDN
# Test: Antagonist activity at human CCR10 expressed in mouse BA/F3 cells assessed as inhibition of human CCL27-dependent chemotaxis
row,IC50,SMILES
1,16 nM,CC1CCN(C(=O)C(CCn2cccc2C#N)NS(=O)(=O)c2cc(Cl)c(N)c(Cl)c2)CC1 (centres undefined)
